According to patent US20220073554A1, “LINCOSAMIDE ANTIBIOTICS AND USES THEREOF” (President and Fellows of Harvard College, priority 2017, published 2022):
In brackets after ≈: the same amount, converted by molar mass. Read-outs that look alike come from different tables or passages of the source.

Experiments:
Format in all cases: cell-based
[1] = tested on: P. aeruginosa ATCC 27853; test: MIC against P. aeruginosa ATCC 27853; conditions: Pseudomonas aeruginosa, ATCC27853
[2] = tested on: K. pneumoniae ATCC 10031; test: MIC against K. pneumoniae ATCC 10031; conditions: Klebsiella pneumoniae, ATCC10031
[3] = tested on: E. coli ATCC 25922; test: MIC against E. coli ATCC 25922; conditions: Escherichia coli, ATCC25922
[4] = tested on: S. aureus MP-513 clinical cErm; test: MIC against S. aureus MP-513 clinical cErm; conditions: Staphylococcus aureus
[5] = tested on: E. coli MP-9 ΔTolC; test: MIC against E. coli MP-9 ΔTolC; conditions: Escherichia coli
[6] = tested on: S. aureus ATCC 29213; test: MIC against S. aureus ATCC 29213; conditions: Staphylococcus aureus
[7] = tested on: E. coli MP-74 LptD mutant; test: MIC against E. coli MP-74 LptD mutant; conditions: Escherichia coli
[8] = tested on: S. pyogenes ATCC 19615; test: MIC against S. pyogenes ATCC 19615; conditions: Streptococcus pyogenes, ATCC19615; S. pyogenes ATCC 19615; read-out: MIC
[9] = tested on: S. pneumoniae ATCC 49619; test: MIC against S. pneumoniae ATCC 49619; conditions: Streptococcus pneumoniae, ATCC49619
[10] = tested on: E. faecalis ATCC 29212; test: MIC against E. faecalis ATCC 29212; conditions: Enterococcus faecalis
[11] = tested on: S. aureus BAA 977 iErmA; test: MIC against S. aureus BAA 977 iErmA; conditions: Staphylococcus aureus, BAA977
[12] = tested on: C. difficile BAA 1805; test: MIC against C. difficile BAA 1805; conditions: Clostridioides difficile, BAA1805
[13] = tested on: S. aureus MP-549 msr(a) USA 300; test: MIC against S. aureus MP-549 msr(a) USA 300; conditions: Staphylococcus aureus, USA300, S. aureus MP-549 msr(a) USA 300
[14] = tested on: H. influenzae ATCC 49247; test: MIC against H. influenzae ATCC 49247; conditions: Haemophilus influenzae, ATCC49247
[15] = tested on: E. coli ATCC 15922; test: MIC against E. coli ATCC 15922; conditions: Escherichia coli, ATCC15922; E. coli ATCC 15922; read-out: MIC
[16] = tested on: E. faecalis MMX 847 Macrolide-Resistant; test: MIC against E. faecalis MMX 847 Macrolide-Resistant; conditions: Enterococcus faecalis; E. faecalis MMX 847 Macrolide-Resistant (MacRes); read-out: MIC
[17] = tested on: S. pneumoniae MMX 3031 cMefA; test: MIC against S. pneumoniae MMX 3031 cMefA; conditions: Streptococcus pneumoniae, MMX3031CMEFA
[18] = tested on: S. aureus MMX 3035 cErmA; test: MIC against S. aureus MMX 3035 cErmA; conditions: Staphylococcus aureus, MMX3035CERMA; S. aureus MMX 3035 cErmA; read-out: MIC
[19] = tested on: S. pyogenes MMX 946 Macrolide-Resistant; test: MIC against S. pyogenes MMX 946 Macrolide-Resistant; conditions: Streptococcus pyogenes; S. pyogenes MMX 946 Macrolide-Resistant (MacRes); read-out: MIC
[20] = S. pneumoniae ATCC 49619, read-out: MIC
[21] = ATCC29213, S. aureus ATCC 29213, read-out: MIC
[22] = E. coli ATCC 25922, read-out: MIC
[23] = H. influenzae ATCC 49247, read-out: MIC

C=CCOC(=O)N1CCO[C@@H]2[C@H](CN[C@@H]2C(=O)N[C@H]([C@H](C)Cl)[C@H]2OC(SC)[C@H](O)[C@H](O)C2O)C1 (stereo partly drawn) [FSA-503073]
MIC [1]: > 64 µg/mL | MIC [2]: > 64 µg/mL | MIC [3]: > 64 µg/mL | MIC [4]: > 64 µg/mL | MIC [5]: > 64 µg/mL

CSC1O[C@H]([C@H](NC(=O)[C@H]2NC[C@@H]3CN(Cc4ccc(N)nc4)CCO[C@H]32)[C@H](C)Cl)C(O)[C@@H](O)[C@H]1O (stereo partly drawn) [FSA-504050]
MIC [1]: > 64 µg/mL | MIC [2]: > 64 µg/mL | MIC [3]: > 64 µg/mL | MIC [4]: > 64 µg/mL | MIC [5]: > 64 µg/mL

CSC1O[C@H]([C@H](NC(=O)[C@H]2NC[C@@H]3CN(C(=N)N)CCO[C@H]32)[C@H](C)Cl)C(O)[C@@H](O)[C@H]1O (stereo partly drawn) [FSA-504057]
MIC [1]: > 64 µg/mL | MIC [2]: > 64 µg/mL | MIC [3]: > 64 µg/mL | MIC ([6]; ATCC29213): > 64 µg/mL | MIC [4]: > 64 µg/mL | MIC [5]: > 64 µg/mL

CSC1O[C@H]([C@H](NC(=O)[C@H]2NC[C@@H]3CC(c4ccc(-c5ccccc5)cc4)=CCO[C@H]32)[C@H](C)Cl)C(O)[C@@H](O)[C@H]1O (stereo partly drawn) [FSA-510001]
MIC [7]: 8 µg/mL (≈ 13.6 µM) | MIC [8]: 2 µg/mL (≈ 3.39 µM) | MIC [9, 20]: 4 µg/mL (≈ 6.79 µM) | MIC [2]: > 64 µg/mL | MIC ([10]; ATCC29212): 8 µg/mL (≈ 13.6 µM) | MIC [11]: 2 µg/mL (≈ 3.39 µM) | MIC [3]: > 64 µg/mL | MIC [6, 21]: 2 µg/mL (≈ 3.39 µM) | MIC [5]: > 64 µg/mL

CSC1O[C@H]([C@H](NC(=O)[C@H]2NC[C@@H]3CC(N)CCO[C@H]32)[C@H](C)Cl)C(O)[C@@H](O)[C@H]1O (stereo partly drawn) [FSA-510012]
MIC [12]: > 64 µg/mL | MIC [7]: > 64 µg/mL | MIC [9]: > 64 µg/mL | MIC [2]: > 64 µg/mL | MIC ([10]; ATCC29212): > 64 µg/mL | MIC [11]: > 64 µg/mL | MIC [13]: > 64 µg/mL | MIC [3]: > 64 µg/mL | MIC ([6]; ATCC29213): > 64 µg/mL | MIC [14]: > 64 µg/mL | MIC [5]: > 64 µg/mL

CNC1CCO[C@@H]2[C@H](CN[C@@H]2C(=O)N[C@H]([C@H](C)Cl)[C@H]2OC(SC)[C@H](O)[C@H](O)C2O)C1 (stereo partly drawn) [FSA-510065]
MIC [12]: > 64 µg/mL | MIC [7]: > 64 µg/mL | MIC [9]: > 64 µg/mL | MIC [2]: > 64 µg/mL | MIC ([10]; ATCC29212): > 64 µg/mL | MIC [11]: > 64 µg/mL | MIC [13]: > 64 µg/mL | MIC [3]: > 64 µg/mL | MIC ([6]; ATCC29213): > 64 µg/mL | MIC [14]: > 64 µg/mL | MIC [5]: > 64 µg/mL

COc1ccc(C2CCO[C@@H]3[C@H](CN[C@@H]3C(=O)N[C@H]([C@H](C)Cl)[C@H]3OC(SC)[C@H](O)[C@H](O)C3O)C2)cc1 (stereo partly drawn) [FSA-511045]
MIC [7]: 37 µg/mL (≈ 67.9 µM) | MIC [8]: ≤ 0.06 µg/mL | MIC [9, 20]: ≤ 0.06 µg/mL | MIC ([10]; ATCC29212, read-out: MIC): 1 µg/mL (≈ 1.83 µM) | MIC [15]: > 64 µg/mL | MIC [6, 21]: 0.3 µg/mL (≈ 0.55 µM) | MIC [5]: 8 µg/mL (≈ 14.7 µM)

CSC1O[C@H]([C@H](NC(=O)[C@H]2NC[C@@H]3C=C(c4cccc(F)c4)CCO[C@@H]23)[C@H](C)Cl)C(O)[C@@H](O)[C@H]1O (stereo partly drawn) [FSA-511071]
MIC [16]: > 64 µg/mL | MIC [8]: 0.5 µg/mL (≈ 0.942 µM) | MIC ([10]; ATCC29212, read-out: MIC): 4 µg/mL (≈ 7.53 µM) | MIC [11]: 2 µg/mL (≈ 3.77 µM) | MIC [13]: 1 µg/mL (≈ 1.88 µM) | MIC [17]: 0.5 µg/mL (≈ 0.942 µM) | MIC [3, 22]: > 64 µg/mL | MIC [6, 21]: 2 µg/mL (≈ 3.77 µM) | MIC [18]: > 64 µg/mL | MIC [19]: > 64 µg/mL | MIC [14, 23]: > 64 µg/mL

CSC1O[C@H]([C@H](NC(=O)[C@H]2NC[C@@H]3C=C(c4ccccc4F)CCO[C@@H]23)[C@H](C)Cl)C(O)[C@@H](O)[C@H]1O (stereo partly drawn) [FSA-511073]
MIC [16]: > 64 µg/mL | MIC ([10]; ATCC29212, read-out: MIC): 4 µg/mL (≈ 7.53 µM) | MIC [11]: 1 µg/mL (≈ 1.88 µM) | MIC [13]: 1 µg/mL (≈ 1.88 µM) | MIC [17]: 12 µg/mL (≈ 22.6 µM) | MIC [3, 22]: > 64 µg/mL | MIC [6, 21]: 1 µg/mL (≈ 1.88 µM) | MIC [18]: > 64 µg/mL | MIC [19]: > 64 µg/mL | MIC [14, 23]: > 64 µg/mL

CSC1O[C@H]([C@H](NC(=O)[C@H]2NC[C@@H]3C[C@@H](c4ccc(C#N)cc4)CCO[C@H]32)[C@H](C)Cl)C(O)[C@@H](O)[C@H]1O (stereo partly drawn) [FSA-512081a]
MIC [11]: 1 µg/mL (≈ 1.85 µM) | MIC [17]: ≤ 0.06 µg/mL

CSC1O[C@H]([C@H](NC(=O)[C@H]2NC[C@@H]3C[C@H](c4ccc(C#N)cc4)CCO[C@H]32)[C@H](C)Cl)C(O)[C@@H](O)[C@H]1O (stereo partly drawn) [FSA-512081b]
MIC [7]: 37 µg/mL (≈ 68.5 µM) | MIC [8]: ≤ 0.06 µg/mL | MIC [9, 20]: ≤ 0.06 µg/mL | MIC ([10]; ATCC29212, read-out: MIC): 1 µg/mL (≈ 1.85 µM) | MIC [11]: 1 µg/mL (≈ 1.85 µM) | MIC [13]: 1 µg/mL (≈ 1.85 µM) | MIC [5]: 8 µg/mL (≈ 14.8 µM)
